Laboratory results taken from patent US5773226A, “Recombinant calf intestinal alkaline phosphatase” (La Jolla Cancer Research Foundation, priority 1995, dated 1998).

Assays:
[1] = target: T1, recombinant calf intestinal alkaline phosphatase (b.IAP), expressed in CHO cells, SEQ ID NO: 10 (Bos taurus, UniProt P19111); experiment: Kinetic parameters (Km, Ki for L-Phe) of recombinant calf IAP; type: biochemical, calf (bovine); conditions: recombinant enzyme; read-out: K1 for L-Phe
T1 construct: codes for a peptide of 533 amino acids in length; made in house; host or cells: Chinese hamster ovary (CHO) cells, ATCC No. CCL61
Experimental: (§1) Values for Km and Kl for L-Phe were determined for the recombinant enzyme as well as for purified protein from calf intestine as described in Hummer and Millan, supra, and Wilkinson, Biochem. J. 8:324-332 (1961), incorporated herein by reference.

[2] = target: purified calf intestinal alkaline phosphatase (b.IAP) from natural sources (calf intestine); experiment: Kinetic parameters (Km, Ki for L-Phe) of purified natural calf IAP; type: biochemical, calf (bovine); conditions: purified natural enzyme; read-out: K1 for L-Phe
Experimental: as §1

T1 sequence (P19111 20-506 limits assumed): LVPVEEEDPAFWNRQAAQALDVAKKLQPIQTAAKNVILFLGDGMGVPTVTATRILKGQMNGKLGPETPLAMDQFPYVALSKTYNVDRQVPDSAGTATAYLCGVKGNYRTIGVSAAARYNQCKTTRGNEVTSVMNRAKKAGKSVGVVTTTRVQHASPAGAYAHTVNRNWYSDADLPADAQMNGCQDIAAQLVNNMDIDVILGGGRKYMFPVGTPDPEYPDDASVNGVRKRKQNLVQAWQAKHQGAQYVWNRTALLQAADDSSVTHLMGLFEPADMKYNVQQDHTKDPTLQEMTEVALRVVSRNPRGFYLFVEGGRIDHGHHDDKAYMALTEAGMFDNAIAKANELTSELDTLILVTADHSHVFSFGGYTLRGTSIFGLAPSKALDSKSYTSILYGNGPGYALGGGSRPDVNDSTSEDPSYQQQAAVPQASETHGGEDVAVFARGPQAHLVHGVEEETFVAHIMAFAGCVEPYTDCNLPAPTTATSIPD

## N[C@@H](Cc1ccccc1)C(=O)O [L-Phe]
[1]
  Ki: 15.2 ± 1.8 mM
[2]
  Ki: 11.2 ± 1 mM
